Test results reported in paper PMC8308911, “Pharmacokinetic Study of Anti-osteoarthritic Compounds of a Standardized Fraction from Sphaeralcea Angustifolia” (Pharmaceuticals, 2021).
Read-outs that look alike come from different tables or passages of the source.

Legend:
[1] = Pharmacokinetics after single intravenous administration of the SaTSS standardized fraction (plasma, HPLC, PKSolver); assay type: in vivo, ICR mice; settings: for AUC(0-t): read-out: AUC0-60 (converted); for Vd: read-out: Vss
Experimental: Analyses of HPLC were carried out in a Waters system (2695 Separation module) coupled to a diode array detector (2996) with a 190–600-nm detection range and operated by the Manager Millennium software system (Empower 1; Waters Corporation, Mexico City, Mexico). Separations were performed in a Spherisorb-ODS RP-18 column (250 × 4.6 mm, 5 µm; Waters Corporation, Mexico) employing a constant temperature of 25 °C during the analyses. Samples (20 µL) were eluted at a 1.0 mL/min flow rate with a gradient of mobile phases of (A) high-purity H2O with trifluoroacetic acid to 0.5% v/v (TFA, Sigma-Aldrich, Mexico City, Mexico) and (B) high purity CH3CN, and compounds were detected by monitoring absorbance for tomentin and scopoletin at λ = 343 nm and for sphaeralcic acid at λ = 357 nm. The mobile phase was started with water (100%) and was maintained for 1 min, then solvent B was gradually incorporated at 5% (at 2 min), at 30% (at 4 min), and at 50% (at 16 min). During the next 4 min, solvent B was increased to 100%, and this proportion was maintained for 5 min. Finally, the following 3 min were utilized to return the mobile phase to the initial condition. […] Identification of scopoletin and tomentin as well as sphaeralcic acid was performed by comparing their retention times (tomentin—11.288 min, scopoletin—11.349 min, coumarin mixure—11.457 min, and sphaeralcic acid—23.319 min) and absorbance spectra.
The mice were previously anesthetized with sodium pentobarbital (PiSA Agropecuaria), then retro-orbital sinus blood was obtained using heparinized capillaries and distributed to heparinized tubes, and tubes were centrifuged at 3500 g for 7 min. The plasma obtained was transferred to new tubes and stored at −4 °C until use.
Plasma samples were extracted with CH3CN and TFA (w/v) 20% (1:1), then vials were centrifuged at 14,000 g for 10 min and the supernatant was transferred to another vial and left to dry at room temperature. The precipitate was resuspended with 1 mL of high-purity methanol (Merk, México) and filtered through Teflon membrane (13 mm, 0.45 µm, Life Science). Each filtered sample was injected into the HPLC equipment, and the concentrations of tomentin and scopoletin at λ = 343 nm and of sphaeralcic acid at λ = 357 nm were obtained by comparison with pre-built calibration curves.
To evaluate the suitability of the assay for the pharmacokinetic studies, 400 mg/kg of the active SaTSS fraction standardized in a mixture of tomentin and scopoletin (7.1 mg/400 mg), and sphaeralcic acid (34.6 mg/400 mg) was administered orally or intravenously to the mice. The dose of SaTSS fraction was chosen based on previous research of active compounds, as the median efective dose of each compound and detectable concentrations of them in the fraction. For oral pharmacokinetics, ten animals were used in each group at different times (0, 1.3, 3.3, 5, 10, 20, 40, 60, 80, 120, and 240 min). For intravenous pharmacokinetics, three animals were used in each group at different times (2, 4, 6, 8, 10, 15, 20, 30, and 60 min) Subsequently, the mice were anesthetized, retro-orbital sinus blood was obtained, plasma samples were extracted with CH3CN and TFA (w/v) 20% (1:1), and the extracts were analyzed by HPLC for coumarin (tomentin and scopoletin) and sphaeralcic acid quantification. Pharmacokinetic calculations were performed using the observed data. All data were subsequently processed using the PKSolver add-in program for Microsoft Excel written in Visual Basic for Applications. All values obtained were expressed in mean ± Standard Deviation (SD). For the pharmacokinetic assay, the selection was made either from a one-compartment or from a two-compartment model, with the use of both the Akaike Information Criterion (AIC) and the Schwarz Criterion (SC). […]

[2] = set-up: method as in PMID 23384552; dose or concentration left out as unconfirmed; settings: feces and urine; ref [20]; cited from earlier work
[3] = ICR, mouse, plasma, iv, 400 mg/kg, intravenous 400 mg/kg SaTES fraction, One-Compartment Model
[4] = ICR, mouse, plasma, iv, 400 mg/kg, intravenous 400 mg/kg SaTES fraction, Two-Compartment Model
[5] = intravenous 400 mg/kg SaTES fraction, One-Compartment Model
[6] = intravenous 400 mg/kg SaTES fraction, Two-Compartment Model
[7] = intravenous 400 mg/kg SaTES fraction, Two-Compartment Model, 400 mg/kg
[8] = intravenous 400 mg/kg SaTES fraction, Two-Compartment Model, listed as Sphaeralcic Acid, 400 mg/kg
[9] = intravenous 400 mg/kg SaTES fraction, Two-Compartment Model, listed as sphaeralcic acid, 400 mg/kg

AUC(0-inf) [1, 3]: 21300 ng·h/mL
clearance [1, 3]: 27 mL/min/kg
AUC(0-t) [1, 3]: 18300 ng·h/mL
C0 ([1]; ICR, mouse, plasma, iv, 400 mg/kg, intravenous 400 mg/kg SaTES fraction, One-Compartment Model, read-out: C0): 41700 ng/mL
MRT ([1]; ICR, mouse, plasma, iv, 400 mg/kg, intravenous 400 mg/kg SaTES fraction, One-Compartment Model, read-out: MRT (converted)): 30.7 min
Vd [1, 3]: 0.828 L/kg
half-life ([1]; ICR, mouse, plasma, iv, 400 mg/kg, intravenous 400 mg/kg SaTES fraction, One-Compartment Model, read-out: t1/2): 21.2 min
AUC(0-inf) [1, 4]: 20400 ng·h/mL
clearance [1, 4]: 28 mL/min/kg
AUC(0-t) [1, 4]: 17700 ng·h/mL
C0 ([1]; ICR, mouse, plasma, iv, 400 mg/kg, intravenous 400 mg/kg SaTES fraction, Two-Compartment Model, read-out: C0): 58500 ng/mL
MRT ([1]; ICR, mouse, plasma, iv, 400 mg/kg, intravenous 400 mg/kg SaTES fraction, Two-Compartment Model, read-out: MRT (converted)): 29.3 min
Vd [1, 4]: 0.826 L/kg
half-life ([1]; ICR, mouse, plasma, iv, 400 mg/kg, intravenous 400 mg/kg SaTES fraction, Two-Compartment Model, read-out: t1/2β): 20.6 min
concentration at 2 min ([1]; ICR, mouse, plasma, intravenous single dose 400 mg/kg SaTES fraction, 2.0 min, n = 3): 40880 ± 210 ng/mL
concentration at 4 min ([1]; ICR, mouse, plasma, intravenous single dose 400 mg/kg SaTES fraction, 4.0 min, n = 3): 36280 ± 110 ng/mL
concentration at 6 min ([1]; ICR, mouse, plasma, intravenous single dose 400 mg/kg SaTES fraction, 6.0 min, n = 3): 33900 ± 240 ng/mL
concentration at 8 min ([1]; ICR, mouse, plasma, intravenous single dose 400 mg/kg SaTES fraction, 8.0 min, n = 3): 31800 ± 750 ng/mL
concentration at 10 min ([1]; ICR, mouse, plasma, intravenous single dose 400 mg/kg SaTES fraction, 10 min, n = 3): 28700 ± 650 ng/mL
concentration at 15 min ([1]; ICR, mouse, plasma, intravenous single dose 400 mg/kg SaTES fraction, 15 min, n = 3): 24400 ± 330 ng/mL
concentration at 20 min ([1]; ICR, mouse, plasma, intravenous single dose 400 mg/kg SaTES fraction, 20 min, n = 3): 21200 ± 510 ng/mL
concentration at 30 min ([1]; ICR, mouse, plasma, intravenous single dose 400 mg/kg SaTES fraction, 30 min, n = 3): 15800 ± 570 ng/mL
concentration at 60 min ([1]; ICR, mouse, plasma, intravenous single dose 400 mg/kg SaTES fraction, 60 min, n = 3): 3810 ± 90 ng/mL
AUMC [1, 5]: 39,202.118 µg/mL*min^2
V [1, 5]: 0.828 (mg)/(µg/mL)
k10 [1, 5]: 0.032 min⁻¹
AUC0-inf ∞ ([1]; intravenous 400 mg/kg SaTES fraction, One-Compartment Model, 400 mg/kg): 1278.978 µg·min/mL
k10 [1, 6]: 0.048 min⁻¹
k12 [1, 6]: 0.249 min⁻¹
k21 [1, 6]: 0.624 min⁻¹
t1/2α [1, 6]: 0.781 min
α [1, 6]: 0.88 min⁻¹
β [1, 6]: 0.034 min⁻¹
A (plasma concentration, central compartment) [1, 7]: 18.03 µg/mL
B (plasma concentration, peripheral compartment) [1, 7]: 40.46 µg/mL
A (plasma concentration, central compartment) [1, 8]: 18.027 µg/mL
AUMC [1, 8]: 35,880.304 µg/mL*min^2
B (plasma concentration, peripheral compartment) [1, 8]: 40.461 µg/mL
C0 [1, 8]: 58489 ng/mL
MRT [1, 8]: 29.294 min
V [1, 8]: 0.591 (mg)/(µg/mL)
AUMC [1, 9]: 35,880.30 µg/mL*min^2
V [1, 9]: 0.59 (mg)/(µg/mL)
SMILES: COc1c(C)cc2c(C(C)C)cc(C(=O)O)c(O)c2c1O [Sphaeralcic acid, sphaeralcic acid]
route of elimination [2]: enterohepatic route
